Assay: Water uptake (hygroscopicity) by dynamic vapor sorption (DVS)
Assay type: physicochemical
Details: 75% RH, 25° C., after 1 hour drying under dry nitrogen
Procedure: The water uptake for AEROPERL® 300 (fumed silica), the Compound, and a sample of AEROPERL® 300 (fumed silica) loaded with 50.0% (w/w) of the Compound was measured as described below.
The compound of formula (I) was dissolved in ethanol and this solution was poured onto a sample of fumed silica that was equal in weight to the amount of the compound of formula (I). The resulting mixture was thoroughly mixed and the solvent was evaporated to provide the compound/AEROPERL® 300 (fumed silica) material used for the uptake study below.
The hygroscopicity of the samples was measured by dynamic vapor sorption (DVS) on a DVS Advantage-1 instrument from Surface Measurement Systems (SMS, Allentown, Pa.). In a DVS experiment the mass increase/decrease of a sample is measured at various relative humidity (RH) levels at a constant temperature. The instrument consists of a microbalance with one pan containing the sample (typically about 5-10 mg of sample) and an empty pan as a reference, and a water vapor generator to produce the desired relative humidity level. All experiments were run at a constant temperature of 25° C. For all experiments the samples were initially dried under a continuous flow of dry nitrogen for 1 hour to establish the dry mass m0. The relative humidity was then increased to 75% and the increase in mass was recorded as the samples take up water.

With `CC(C)c1nc(CN(C)C(=O)NC(CCN2CCOCC2)C(=O)NC(CCC(Cc2ccccc2)NC(=O)OCc2cncs2)Cc2ccccc2)cs1` (stereo not shown) [the Compound] the “water adsorbed (increase in mass at equilibrium)” value was 4.8 % (by weight).
